Measured values reported in patent publication US8629164B2, “Inhibitors of NF-κB” (Profectus Biosciences, Inc., priority 2009, dated 2014).
Counter-ions that a name gives are not always drawn.

Key:
[1] = tested on: IL-6 release from RAW264.7 cells; assay: IL-6 release from LPS stimulated RAW264.7 cells; format: cell-based, mouse
Procedure: Specifically, A and B show the effects of the compound of Example 1 on soluble PGE2 and Il-6 secretion from RAW264.7 cells stimulated by 1 μg/mL of LPS. The cells were treated with the indicated concentrations of the compound of Example 1 for 2 hours, and then LPS was added and incubation continued for 4 hours. […]

p65 (RelA) = p65 (RelA) (Homo sapiens, UniProt Q04206); assay: TransAM NF-κB Family DNA Binding ELISA, p65; conditions: p65 binding IC50 (uM), binding to NF-κB sites
p52 = target: T1, p52 (Homo sapiens, UniProt Q00653); assay: TransAM NF-κB Family DNA Binding ELISA, p52; conditions: for IC50: p52 binding IC50 (uM), cells without % sign; for inhibition at 5 µM: read-out: p52 binding % inhibit. at 5 uM, at 5 uM
T1 sequence (Q00653 1-454 limits assumed): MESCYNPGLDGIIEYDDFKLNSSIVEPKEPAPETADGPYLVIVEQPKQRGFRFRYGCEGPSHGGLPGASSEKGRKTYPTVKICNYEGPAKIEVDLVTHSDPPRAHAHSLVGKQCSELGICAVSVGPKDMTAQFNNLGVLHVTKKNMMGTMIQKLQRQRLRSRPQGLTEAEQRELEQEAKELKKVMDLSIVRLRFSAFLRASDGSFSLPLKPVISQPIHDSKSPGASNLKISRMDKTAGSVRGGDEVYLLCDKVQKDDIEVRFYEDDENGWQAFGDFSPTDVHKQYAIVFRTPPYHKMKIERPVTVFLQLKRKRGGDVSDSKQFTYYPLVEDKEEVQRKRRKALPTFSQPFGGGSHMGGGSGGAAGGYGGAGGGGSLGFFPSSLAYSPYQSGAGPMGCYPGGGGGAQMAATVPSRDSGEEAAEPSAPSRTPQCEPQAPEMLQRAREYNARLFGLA
Procedure: (§2) Treated samples were then transferred to 30 μL Complete Binding Buffer (with DTT) in microplate wells pre-coated with the NF-κB consensus oligonucleotide. […] The plate was incubated for 1 hour at room temperature with gentle shaking and then washed 3 times with 200 μL 1× Wash Buffer. NF-κB p65, p50, p52, RelB, or c-Rel subunits bound to the plate were detected with 100 μL of the primary antibody (diluted 1:1000 in 1× Antibody Buffer) specific for that subunit. The plate was incubated for 1 hour at room temperature and then washed 3 times with 200 μL 1× Wash Buffer. Next, 100 μL of a HRP conjugated goat anti-rabbit antibody (diluted 1:1,000 in 1× Antibody Buffer) was added to each well. The plate was incubated for 1 hour at room temperature and then washed 4 times with 200 μL 1× Wash Buffer. 100 μL of room temperature Developing Solution was added to each well. The reaction was allowed to develop for 2-10 minutes until a medium dark blue color developed (depending on the subunit activity in the lot of extract or lot of recombinant protein used) and then the reaction was stopped with 100 μL Stop Solution yielding a yellow color. Absorbance was recorded using a Becton-Dickinson DTX 880 Multimode Detector at 450 nm with a reference wavelength subtracted at 620 nm.

c-Rel = target: T2, c-Rel (Homo sapiens, UniProt Q04864); assay: TransAM NF-κB Family DNA Binding ELISA, c-Rel; conditions: for IC50: c-Rel binding IC50 (uM), cells without % sign; for inhibition at 5 µM: read-out: c-Rel binding % inhibit. at 5 uM, at 5 uM
T2 sequence (Q04864 2-619 limits assumed): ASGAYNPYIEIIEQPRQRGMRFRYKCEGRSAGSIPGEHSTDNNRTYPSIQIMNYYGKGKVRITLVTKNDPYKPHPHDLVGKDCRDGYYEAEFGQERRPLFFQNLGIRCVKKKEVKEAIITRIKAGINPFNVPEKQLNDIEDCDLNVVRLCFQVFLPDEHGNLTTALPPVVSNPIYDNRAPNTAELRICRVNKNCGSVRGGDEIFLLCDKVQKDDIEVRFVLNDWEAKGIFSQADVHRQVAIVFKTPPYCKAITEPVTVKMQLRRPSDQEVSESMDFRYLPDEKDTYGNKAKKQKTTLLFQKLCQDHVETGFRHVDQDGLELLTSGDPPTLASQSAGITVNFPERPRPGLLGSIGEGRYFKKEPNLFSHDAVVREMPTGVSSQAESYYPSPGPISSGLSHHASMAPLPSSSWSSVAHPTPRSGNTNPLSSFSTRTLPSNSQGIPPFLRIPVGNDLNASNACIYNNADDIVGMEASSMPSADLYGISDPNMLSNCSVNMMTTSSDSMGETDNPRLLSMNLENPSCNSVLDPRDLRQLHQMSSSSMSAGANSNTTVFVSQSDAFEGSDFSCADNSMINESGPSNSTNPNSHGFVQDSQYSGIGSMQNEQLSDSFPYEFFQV

RelB = target: T3, RelB (Homo sapiens, UniProt Q01201); assay: TransAM NF-κB Family DNA Binding ELISA, RelB; conditions: for IC50: RelB binding IC50 (uM), cells without % sign; for inhibition at 5 µM: read-out: RelB binding % inhibit. at 5 uM, at 5 uM
T3 sequence (Q01201 1-579): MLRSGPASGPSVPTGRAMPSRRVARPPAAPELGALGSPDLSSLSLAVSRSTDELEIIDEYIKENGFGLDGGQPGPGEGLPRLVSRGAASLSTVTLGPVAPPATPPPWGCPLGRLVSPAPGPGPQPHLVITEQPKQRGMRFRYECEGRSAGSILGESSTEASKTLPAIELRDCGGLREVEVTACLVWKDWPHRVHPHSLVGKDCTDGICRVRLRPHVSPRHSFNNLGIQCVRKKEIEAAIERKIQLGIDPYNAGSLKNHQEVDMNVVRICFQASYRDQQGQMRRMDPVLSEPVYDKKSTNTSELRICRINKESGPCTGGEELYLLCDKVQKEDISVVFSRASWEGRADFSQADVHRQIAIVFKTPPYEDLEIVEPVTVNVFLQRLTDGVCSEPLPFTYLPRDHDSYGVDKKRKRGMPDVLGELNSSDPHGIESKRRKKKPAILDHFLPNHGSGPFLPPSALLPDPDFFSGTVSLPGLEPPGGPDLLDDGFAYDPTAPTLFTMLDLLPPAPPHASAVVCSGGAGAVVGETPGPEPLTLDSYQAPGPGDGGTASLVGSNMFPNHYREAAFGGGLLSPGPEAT
T3 sequence (Q00653 1-454 partner limits assumed): T1 sequence (Q00653 1-454 limits assumed)
Procedure: as §2

NF-κB [2] = assay: 293-cell pTRH1-NF-κB-dscGFP reporter assay, TNF-α induced; format: cell-based; conditions: Homo sapiens, HEK293, HEK293 cells, NF-κB driven GFP expression; read-out: NF-kB/293/GFP EC50
Procedure: (§1) Inhibition of NF-κB in cells by the compound of Example 1. Two reporter cell assays were used to determine the ability of the compound of Example 1 to inhibit NE-KB driven transcription. The first assay was a 293-cell based assay with a stably integrated pNF-κB-luc reporter plasmid containing 3 NF-κB promoter elements. The second assay was a 293-cell based assay with a stably integrated pTRH1-NF-κB-dscGFP reporter containing 4 NF-κB promoter elements. Cells were treated with 0, 0.2, 1, 10, 20 and 40 μM of the compound of Example 1 for 2 hours then were induced with 20 ng/ml TNF-α for 18 hours. Following the induction, luminescence or fluorescence was quantified using a Beckman-Coulter 2300 plate reader. […] These values represent the median value generated from three independent experiments±the standard error. As a control, 0.5% DMSO treated and untreated cells were compared to verify that the Example 1 carrier had no effect on the expression of luciferase or in the readout of the assay. There was a slight decrease in the output from the assay in the DMSO treated population although it was not statistically significant. As a result of the controls, the decrease in activity in the drug treated samples was compared to the DMSO control sample.

NF-κB [3] = assay: 293-cell pNF-κB-luc reporter assay, TNF-α induced; format: cell-based; conditions: HEK293 cells, NF-κB driven luciferase expression, read-out: 293/NFkB-luc EC50
Procedure: as §1

p50 = target: T4, p50 (Homo sapiens, UniProt P19838); assay: TransAM NF-κB Family DNA Binding ELISA, p50; conditions: for IC50: p50 binding IC50 (uM), cells without % sign; for inhibition at 5 µM: read-out: p50 binding % inhibit. at 5 uM
T4 sequence (P19838 1-433 limits assumed): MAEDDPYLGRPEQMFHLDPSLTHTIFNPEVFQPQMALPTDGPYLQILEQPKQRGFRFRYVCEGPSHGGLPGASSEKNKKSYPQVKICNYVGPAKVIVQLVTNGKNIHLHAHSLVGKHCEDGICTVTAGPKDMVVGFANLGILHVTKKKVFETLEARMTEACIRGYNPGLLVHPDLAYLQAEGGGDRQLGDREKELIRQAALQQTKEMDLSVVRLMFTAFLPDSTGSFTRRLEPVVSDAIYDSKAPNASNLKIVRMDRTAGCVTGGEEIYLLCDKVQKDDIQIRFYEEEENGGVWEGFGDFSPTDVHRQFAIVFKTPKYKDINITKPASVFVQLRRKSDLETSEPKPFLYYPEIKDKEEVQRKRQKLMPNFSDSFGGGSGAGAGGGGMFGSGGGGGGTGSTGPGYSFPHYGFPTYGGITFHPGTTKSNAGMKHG

[4] = Mus musculus, RAW264.7, RAW 264.7 cells

Chain of p65 (RelA) (Q04206 whole entry): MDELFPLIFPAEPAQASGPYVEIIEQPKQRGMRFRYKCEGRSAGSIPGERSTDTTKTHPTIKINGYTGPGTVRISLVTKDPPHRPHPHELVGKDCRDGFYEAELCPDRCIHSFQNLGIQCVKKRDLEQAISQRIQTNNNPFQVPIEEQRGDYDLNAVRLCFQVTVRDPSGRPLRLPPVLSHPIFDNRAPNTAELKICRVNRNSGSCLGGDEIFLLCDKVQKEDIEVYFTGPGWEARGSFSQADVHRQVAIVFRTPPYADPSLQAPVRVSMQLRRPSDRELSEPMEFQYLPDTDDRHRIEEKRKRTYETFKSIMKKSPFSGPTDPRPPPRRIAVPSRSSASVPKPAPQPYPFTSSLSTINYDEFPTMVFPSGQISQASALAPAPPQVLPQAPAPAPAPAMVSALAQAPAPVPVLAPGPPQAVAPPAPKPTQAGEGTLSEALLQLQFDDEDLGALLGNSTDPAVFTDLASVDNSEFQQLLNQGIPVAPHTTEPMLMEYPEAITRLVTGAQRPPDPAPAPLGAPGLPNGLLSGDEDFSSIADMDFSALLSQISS

Structure (SMILES)	EC50 [1, 4]	IC50 (p65 (RelA))	IC50 (p52)	IC50 (c-Rel)	IC50 (RelB)	EC50 (NF-κB [2])	EC50 (NF-κB [3])	IC50 (p50)	inhibition at 5 µM (p52)	inhibition at 5 µM (c-Rel)	inhibition at 5 µM (RelB)	inhibition at 5 µM (p50)	EC50 ([1]; RAW 264.7 cells)	c-Rel binding % inhibit. at 5 uM (c-Rel)	RelB binding % inhibit. at 5 uM (RelB)	EC50 ([1]; RAW 264.7 cells, trifluoroacetate)	EC50 (NF-κB [3]; trifluoroacetate)	EC50 ([1]; RAW 264.7 cells, tosylate)	p52 binding % inhibit. at 5 uM (p52; at 5 uM)	EC50 (NF-κB [3]; tosylate)
O=C(NC1=CC(=O)C2OC2C1=O)c1cc2ccccc2nc1O (racemic) [Example 28, (±)-N-(2,5-dioxo-7-oxabicyclo[4.1.0]hept-3-en-3-yl)-2-hydroxyquinoline-3-carboxamide]	190 nM	3 µM	9.6 µM	4.5 µM	3 µM	4.2 µM	2.7 µM	20 µM	–	–	–	–	–	–	–	–	–	–	–	–
COc1c(C(=O)NC2=CC(=O)C3OC3C2O)ccc2cccnc12 (racemic) [Example 29, (±)-N-(2-hydroxy-5-oxo-7-oxabicyclo[4.1.0]hept-3-en-3-yl)-8-methoxyquinoline-7-carboxamide]	160 nM	4.5 µM	59 µM	11 µM	12 µM	2.2 µM	0.46 µM	129 µM	–	–	–	–	–	–	–	–	–	–	–	–
O=C(NC1=CC(=O)C2OC2C1O)c1cnc(N2CCCCC2)nc1O (racemic) [Example 11, (±)-4-hydroxy-2-piperidin-1-yl-pyrimidine-5-carboxylic acid (2-hydroxy-5-oxo-7-oxa-bicyclo[4.1.0]hept-3-en-3-yl)-amide]	7700 nM	4.6 µM	–	–	–	5.8 µM	15 µM	–	9%	40%	18%	4%	–	–	–	–	–	–	–	–
O=C(NC1=CC(=O)C2OC2C1O)c1ncccc1O (racemic) [Example 3, (±)-3-hydroxy-N-(2-hydroxy-5-oxo-7-oxabicyclo[4.1.0]hept-3-en-3-yl)picolinamide]	–	–	301 µM	–	–	3.4 µM	15 µM	> 636 µM	–	–	–	–	1400 nM	15%	0%	–	–	–	–	–
COc1cccnc1C(=O)NC1=CC(=O)C2OC2C1O (racemic) [Example 20, (±)-3-methoxy-pyridine-2-carboxylic acid (2-hydroxy-5-oxo-7-oxa-bicyclo[4.1.0]hept-3-en-3-yl)-amide]	–	5.8 µM	–	–	–	7.7 µM	9.6 µM	–	18%	40%	29%	1%	1400 nM	–	–	–	–	–	–	–
COc1ncccc1C(=O)NC1=CC(=O)C2OC2C1O (racemic) [Example 21, (±)-N-(2-hydroxy-5-oxo-7-oxa-bicyclo[4.1.0]hept-3-en-3-yl)-2-methoxy-nicotinamide trifluoroacetate]	–	0.55 µM	22 µM	1.1 µM	1.5 µM	–	–	22 µM	–	–	–	–	–	–	–	380 nM	5.8 µM	–	–	–
Cc1ccc(S(=O)(=O)O)cc1.O=C(NC1=CC(=O)C2OC2C1O)c1ncccc1O (racemic) [Example 14, (±)-3-hydroxy-N-(2-hydroxy-5-oxo-7-oxabicyclo[4.1.0]hept-3-en-3-yl)picolinamide tosylate]	–	–	–	–	–	–	–	–	–	–	–	–	–	1%	9%	–	–	3300 nM	6%	23 µM
O=C(NC1=CC(=O)C2OC2C1O)c1cnccc1O (racemic) [Example 4, (±)-4-hydroxy-N-(2-hydroxy-5-oxo-7-oxa-bicyclo[4.1.0]hept-3-en-3-yl)-nicotinamide]	> 51000 nM	5 µM	365 µM	–	–	40 µM	> 51 µM	118 µM	–	23%	21%	–	–	–	–	–	–	–	–	–
O=C(NC1=CC(=O)C2OC2C1O)c1nc2ccccc2cc1O (racemic) [Example 15, (±)-3-hydroxy-quinoline-2-carboxylic acid-(2-hydroxy-5-oxo-7-oxa-bicyclo[4.1.0]hept-3-en-3-yl)-amide]	1000 nM	488 µM	–	–	–	4.9 µM	11 µM	–	0%	6%	0%	0%	–	–	–	–	–	–	–	–
COc1ncccc1C(=O)NC1=CC(=O)C2OC2C1O (racemic) [Example 16, (±)-N-(2-hydroxy-5-oxo-7-oxa-bicyclo[4.1.0]hept-3-en-3-yl)-2-methoxy-nicotinamide]	640 nM	0.88 µM	3.7 µM	0.8 µM	1.7 µM	1.2 µM	7.1 µM	20 µM	–	–	–	–	–	–	–	–	–	–	–	–
